Measurements: patent US8962608B2, “Cycloalkylnitrile pyrazole carboxamides as janus kinase inhibitors” (Merck Sharp & Dohme Corp., priority 2011, dated 2015)

Columns and labels:
[1] = target: JAK1 (recombinant purified GST-tagged catalytic domain) (Homo sapiens (Human), UniProt P23458); assay: biochemical;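 further: biochemical assay with HTRF read-out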
[2] = target: JAK2 (recombinant purified GST-tagged catalytic domain) (Homo sapiens (Human), UniProt O60674); assay: biochemical;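 further: biochemical JAK kinase assay with HTRF detection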
JAK2 (recombinant purified GST-tagged catalytic domain), sequence (O60674 849-1124): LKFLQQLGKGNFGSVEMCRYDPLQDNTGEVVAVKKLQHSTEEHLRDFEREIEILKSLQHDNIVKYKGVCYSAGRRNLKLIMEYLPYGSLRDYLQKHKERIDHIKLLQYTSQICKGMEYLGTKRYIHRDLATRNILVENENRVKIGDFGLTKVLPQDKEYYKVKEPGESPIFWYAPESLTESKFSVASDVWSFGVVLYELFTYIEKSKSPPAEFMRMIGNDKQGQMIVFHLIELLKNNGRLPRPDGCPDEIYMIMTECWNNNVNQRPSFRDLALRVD

JAK1 (recombinant purified GST-tagged catalytic domain), sequence (P23458 875-1153): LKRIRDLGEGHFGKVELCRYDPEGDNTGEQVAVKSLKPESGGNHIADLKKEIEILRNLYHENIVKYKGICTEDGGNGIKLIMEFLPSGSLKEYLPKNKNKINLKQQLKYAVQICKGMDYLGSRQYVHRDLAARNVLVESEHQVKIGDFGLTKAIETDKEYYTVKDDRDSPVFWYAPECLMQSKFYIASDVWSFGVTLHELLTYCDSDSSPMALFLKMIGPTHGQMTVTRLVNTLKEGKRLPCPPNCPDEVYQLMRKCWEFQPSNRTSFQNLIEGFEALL

SMILES | IC50 [1] [nM] | IC50 [2] [nM]
CN[C@H]1CC[C@H](n2cc(C(N)=O)c(Nc3ccc(Cl)cc3)n2)[C@@H](C#N)C1 (single isomer, unassigned) [Example 28-40, 3-[(4-chlorophenyl)amino]-1-[(1S,2S,4S or 1R,2R,4R)-2-cyano-4-(methylamino)cyclohexyl]-1H-pyrazole-4-carboxamide] | 0.7 | 16
CC(C)(C)N[C@@H]1CC[C@H](n2cc(C(N)=O)c(Nc3ccc([C@H](O)C(F)(F)F)cc3)n2)[C@@H](C#N)C1 (single isomer, unassigned) [Example 28-52, 1-[(1S,2S,4R or 1R,2R,4S)-4-(tert-butylamino)-2-cyanocyclohexyl]-3-({4-[(1S or 1R)-2,2,2-trifluoro-1-hydroxyethyl]phenyl}amino)-1H-pyrazole-4-carboxamide] | 0.4 | 23
N#C[C@H]1C[C@H](O)CCC1n1cc(C(N)=O)c(Nc2ccc(S(=O)(=O)C(F)F)cc2)n1 (mixture of isomers) [Example 14, 1-[(1S,2S,4R and 1R,2R,4S)-2-Cyano-4-hydroxycyclohexyl]-3-({4-[(difluoromethyl)sulfonyl]phenyl}amino)-1H-pyrazole-4-carboxamide] | 0.32 | 3
N#C[C@H]1C[C@@H](O)CC[C@@H]1n1cc(C(N)=O)c(Nc2ccc(C(F)F)nc2)n1 (single isomer, unassigned) [Example 33-8, 1-[(1S,2S,4S or 1R,2R,4R)-2-cyano-4-hydroxycyclohexyl)-3-{I6-(difluoromethyl)pyridin-3-yl]amino}-1H-pyrazole-4-carboxamide] | 8 | 33
N#Cc1ccc(Nc2nn([C@H]3CCCC[C@@H]3C#N)cc2C(N)=O)cc1 (racemic) [Example 17-5, 1-[(1S,2S and 1R,2R)-2-cyanocyclohexyl]-3-[(4-cyanophenyl)amino]-1H-pyrazole-4-carboxamide] | 1 | 9
N#C[C@H]1C[C@H](O)CC[C@@H]1n1cc(C(N)=O)c(Nc2ccc(OC(F)(F)F)cc2)n1 (single isomer, unassigned) [Example 24, 1-((1S,2S or 1R,2R)-2-cyano-4(R)-hydroxycyclohexyl)-3-((4-(trifluoromethoxy)phenyl)amino)-1H-pyrazole-4-carboxamide] | 6 | 61
N#C[C@H]1C[C@@](O)(C2CC2)CC[C@@H]1n1cc(C(N)=O)c(Nc2ccc(Cl)c(F)c2)n1 (single isomer, unassigned) [Example 32-1, 3-[(4-Chloro-3-fluorophenyl)amino]-1-[(1S,2S,4S or 1R,2R,4R)-2-cyano-4-cyclopropyl-4-hydroxycyclohexyl]-1H-pyrazole-4-carboxamide] | 13 | 59
CNC(=O)O[C@@H]1CCC(n2cc(C(N)=O)c(Nc3ccc(F)cc3)n2)[C@@H](C#N)C1 (mixture of isomers) [Example 34-6, (1R,3S,4S and 1S,3R,4R)-4-{4-carbamoyl-3-[(4-fluorophenyl)aminol-1H-pyrazol-1-yl}-3-cyanocyclohexyl methylcarbamate] | 1 | 12
N#C[C@@H]1C[C@H](C(=O)NC(C2CC2)C2CC2)CC[C@H]1n1cc(C(N)=O)c(Nc2ccc(Cl)cc2)n1 (single isomer, unassigned) [Example 35-5, 3-[(4-chlorophenyl)amino]-1-{(1R,2R,4R or 1S,2S,4S)-2-cyano-4-[(dicyclopropylmethyl)carbamoyl]cyclohcxyl}-1H-pyrazole-4-carboxamide] | 13 | 169
N#C[C@H]1CC(NCC(F)F)CC[C@@H]1n1cc(C(N)=O)c(Nc2ccc(S(=O)(=O)C(F)F)cc2)n1 (single isomer, unassigned) [Example 28-122, 1-{(1S,2S or 1R,2R)-2-cyano-4-[(2,2-difluoroethyl)amino]cyclohexyl}-3-({4-[(difluoro-methyl)sulfonyl]phenyl}amino)-1H-pyrazole-4-carboxamide] | 0.9 | 6
N#C[C@H]1C[C@H](O)CC[C@@H]1n1cc(C(N)=O)c(Nc2ccc(C(F)(F)F)nc2)n1 (single isomer, unassigned) [Example 25-10, 1-[(1S,2S,4R or 1R,2R,4S)-2-cyano-4-hydroxycyclohexyl]-3-{[6-(trifluoromethyl)pyridin-3-yl]amino}-1H-pyrazole-4-carboxamide] | 4 | 17
N#C[C@H]1C[C@@H](NC2(C(F)(F)F)CC2)CC[C@@H]1n1cc(C(N)=O)c(Nc2ccc(Cl)cc2)n1 (single isomer, unassigned) [Example 28-226, 3-[(4-chlorophenyl)amino]-1-[(1S,2S,4S or 1R,2R,4R)-2-cyano-4-{[1-(trifluoro-methyl)cyclopropyl]a-mino}cyclohexyl]-1H-pyrazole-4-carboxamide] | 5 | 36
N#C[C@H]1C[C@@H](O)CC[C@@H]1n1cc(C(N)=O)c(Nc2ccc(OC(F)(F)F)cc2)n1 (single isomer, unassigned) [Example 33-1, 1-((1S,2S,4S or 1R,2R,4R)-2-Cyano-4-hydroxycyclohexyl)-3-((4-(trifluoromethoxy)phenyl)amino)-1H-pyrazole-4-carboxamide] | 0.5 | 5
CO/N=C(\C)c1ccc(Nc2nn([C@H]3CCCC[C@@H]3C#N)cc2C(N)=O)cc1 (single isomer, unassigned) [Example 40, 1-[(1S,2S or 1R,2R)-2-Cyanocyclohexyl]-3-{[4-(N-methoxyethanimidoyl)phenyl]amino}-1H-pyrazole-4-carboxamide] | 0.35 | 2
N#C[C@H]1C[C@@H](NCC2CC2)CC[C@@H]1n1cc(C(N)=O)c(Nc2ccc(C(F)(F)F)cc2)n1 (single isomer, unassigned) [Example 28-10, 1-{(1S,2S,4S or 1R,2R,4R)-2-cyano-4-[(cyclopropyl-methyl)amino]cyclohexyl}-3-{[4-(trifluoromethyl)phenyl]amino}-1H-pyrazole-4-carboxamide] | 3 | 64
Cc1noc(-c2ccc(Nc3nn([C@H]4CCCC[C@@H]4C#N)cc3C(N)=O)cc2)n1 (racemic) [Example 17-6, 1-[(1S,2S and 1R,2S)-2-cyanocyclohexyl]-3-{[4-(3-methyl-1,2,4-oxadiazol-5-yl)phenyl]amino}-1H-pyrazole-4-carboxamide] | 4 | 25
COc1cccc(N2CCN(S(=O)(=O)c3ccc(Nc4nn([C@H]5CCCC[C@@H]5C#N)cc4C(N)=O)cc3)CC2)c1 (single isomer, unassigned) [Example 17-97, 1-[(1R,2R or 1S,2S)-2-cyanocyclohexyl]-3-[(4-{[4-(3-methoxyphenyl)piperazin-1-yl]sulfonyl}phenyl)amino]-1H-pyrazole-4-carboxamide] | 9 | 24
Cn1cc(-c2cc(Nc3nn([C@H]4CCCC[C@@H]4C#N)cc3C(N)=O)ccn2)cn1 (racemic) [Example 17-22, 1-[(1S,2S and 1R,2R)-2-cyanocyclohexyl]-3-{[2-(1-methyl-1H-pyrazol-4-yl)pyridin-4-yl]amino}-1H-pyrazole-4-carboxamide] | 3 | 60
N#C[C@H]1C[C@@H](N2CCC2)CC[C@@H]1n1cc(C(N)=O)c(Nc2ccc(C(F)(F)F)cc2)n1 (single isomer, unassigned) [Example 28-1, 1-((1S,2S,4S or 1R,2R,4R)-4-(azetidin-1-yl)-2-cyanocyclohexyl)-3-((4-(trifluoromethyl)phenyl)amino)-1H-pyrazole-4-carboxamide] | 0.4 | 23
COC1CN(C2CC[C@H](n3cc(C(N)=O)c(Nc4ccc(S(=O)(=O)C(F)(F)F)cc4)n3)[C@@H](C#N)C2)C1 (single isomer, unassigned) [Example 28-147, 1-[(1S,2S or 1R,2R)-2-cyano-4-(3-methoxyazetidin-1-yl)cyclohexyl]-3-({4-[(trifluoro-methyl)sulfonyl]phenyl}amino)-1H-pyrazole-4-carboxamide] | 0.45 | 5
N#Cc1ncc(Nc2nn([C@H]3CCCC[C@@H]3C#N)cc2C(N)=O)cc1F (single isomer, unassigned) [Example 17-79, 1-[(1R,2R or 1S,2S)-2-cyanocyclohexyl]-3-[(6-cyano-5-fluoropyridin-3-yl)amino]-1H-pyrazole-4-carboxamide] | 7 | 40
N#C[C@H]1CCCC[C@@H]1n1cc(C(N)=O)c(Nc2ccc(C(F)(F)F)nc2)n1 (single isomer, unassigned) [Example 17-101, 1-[(1S,2S or 1R,2R)-2-cyanocyclohexyl]-3-{[6-(trifluoromethyl)pyridin-3-yl]amino}-1H-pyrazole-4-carboxamide] | 2 | 9
N#C[C@H]1CCCC[C@@H]1n1cc(C(N)=O)c(Nc2ccc(S(=O)(=O)NCc3ccncc3)cc2)n1 (single isomer, unassigned) [Example 17-86, 1-[(1R,2R or 1S,2S)-2-cyanocyclohexyl]-3-({4-[(pyridin-4-ylmethyl)sulfamoyl]phenyl}amino)-1H-pyrazole-4-carboxamide] | 0.25 | 0.95
N#C[C@H]1C[C@@H](N2CCC23COC3)CC[C@@H]1n1cc(C(N)=O)c(Nc2ccc(Cl)cc2)n1 (single isomer, unassigned) [Example 28-146, 3-[(4-chlorophenyl)amino]-1-[(1S,2S,4S or 1R,2R,4R)-2-cyano-4-(6-oxa-1-azaspiro[3.3]hept-1-yl)cyclohexyl]-1H-pyrazole-4-carboxamide] | 1 | 4
N#C[C@H]1CCCC[C@@H]1n1cc(C(N)=O)c(Nc2ccc(S(=O)(=O)NCCN3CCCC3)cc2)n1 (single isomer, unassigned) [Example 17-87, 1-[(1R,2R or 1S,2S)-2-cyanocyclohexyl]-3-({4-[(2-pyrrolidin-1-ylethyl)sulfamoyl]phenyl}amino)-1H-pyrazole-4-carboxamide] | 0.5 | 2
